Source: PubChem BioAssay AID330 (DTP/NCI, 2004)
“And” between values parts separate entries of the source, which are not always exact repeats. Identical values can stand only once. Inconclusive results and toxic doses are left out. How the source made its calls: active means survival T/C of 150% or more; inactive means T/C below 125% in these data.

Test system: P388 leukemia ip, CD2F1 mice, survival T/C
Test: NCI In Vivo Anticancer Drug Screen. Data for tumor model P388 Leukemia (intraperitoneal) in CD2F1 (CDF1) mice
Settings: endpoint: median survival time, higher = longer survival
Summary of the method: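 Mice carrying the transplanted tumor received test compound or vehicle. Survival was recorded in each group, and the value is the treated-group measurement divided by that of the vehicle-treated control group.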

[1] = dose: 100.0 mg/kg/injection, schedule: Q04DX002 (ip), vehicle: Klucel (hydroxypropylcellulose) (HPC)
[2] = dose: 200.0 mg/kg/injection, schedule: Q04DX002 (ip), vehicle: Klucel (hydroxypropylcellulose) (HPC)
[3] = dose: 60.0 mg/kg/injection, schedule: Q01DX005 (ip), vehicle: Klucel (hydroxypropylcellulose) (HPC)
[4] = dose: 120.0 mg/kg/injection, schedule: Q01DX005 (ip), vehicle: Klucel (hydroxypropylcellulose) (HPC)
[5] = dose: 50.0 mg/kg/injection, schedule: Q01DX005 (ip), vehicle: Klucel (hydroxypropylcellulose) (HPC)
[6] = dose: 100.0 mg/kg/injection, schedule: Q01DX005 (ip), vehicle: Klucel (hydroxypropylcellulose) (HPC)
[7] = dose: 50.0 mg/kg/injection, schedule: Q04DX002 (ip), vehicle: Klucel (hydroxypropylcellulose) (HPC)
[8] = dose: 12.5 mg/kg/injection, schedule: Q01DX009 (ip), vehicle: saline
[9] = dose: 25.0 mg/kg/injection, schedule: Q01DX009 (ip), vehicle: saline
[10] = dose: 50.0 mg/kg/injection, schedule: Q01DX009 (ip), vehicle: saline with Tween-80
[11] = dose: 50.0 mg/kg/injection, schedule: Q01DX009 (ip), vehicle: saline
[12] = dose: 100.0 mg/kg/injection, schedule: Q01DX009 (ip), vehicle: saline with Tween-80
[13] = dose: 100.0 mg/kg/injection, schedule: Q01DX009 (ip), vehicle: saline
[14] = dose: 200.0 mg/kg/injection, schedule: Q01DX009 (ip), vehicle: saline with Tween-80
[15] = dose: 120.0 mg/kg/injection, schedule: Q01DX005 (ip), vehicle: saline with Tween-80
[16] = dose: 12.5 mg/kg/injection, schedule: Q01DX009 (ip), vehicle: Klucel (hydroxypropylcellulose) (HPC)
[17] = dose: 25.0 mg/kg/injection, schedule: Q01DX009 (ip), vehicle: Klucel (hydroxypropylcellulose) (HPC)
[18] = dose: 50.0 mg/kg/injection, schedule: Q01DX009 (ip), vehicle: Klucel (hydroxypropylcellulose) (HPC)
[19] = dose: 100.0 mg/kg/injection, schedule: Q01DX009 (ip), vehicle: Klucel (hydroxypropylcellulose) (HPC)
[20] = dose: 200.0 mg/kg/injection, schedule: Q01DX009 (ip), vehicle: Klucel (hydroxypropylcellulose) (HPC)

Measured: T/C

C1=NC(C2CC2)c2ccc3c([nH]c4ccccc43)c2N1 (centres undefined)
inactive: [1] 101 % of control | [2] 90 % of control

CC1(C)C(=O)C2=C(OC3([Se]2)C(=O)C(C)(C)C(=O)C(C)(C)C3=O)C(C)(C)C1=O
inactive: dose: 7.5 mg/kg/injection, schedule: Q01DX005 (ip), vehicle: Klucel (hydroxypropylcellulose) (HPC) 100 % of control | dose: 15.0 mg/kg/injection, schedule: Q01DX005 (ip), vehicle: Klucel (hydroxypropylcellulose) (HPC) 107 % of control | dose: 30.0 mg/kg/injection, schedule: Q01DX005 (ip), vehicle: Klucel (hydroxypropylcellulose) (HPC) 107 % of control | [3] 99 % of control | [4] 102 % of control

CN=C(Nc1ccccn1)c1ccc(NC(=O)c2ccc(C(=O)Nc3ccc(C(=NC)Nc4ccccn4)cc3)cc2)cc1
inactive: [5] 107 % of control | [6] 110 % of control

OCCCCC1COC(CC2OCC(CCCCO)O2)O1 (centres undefined)
inactive: dose: 50.0 mg/kg/injection, schedule: Q01DX005 (ip), vehicle: saline 101 % of control | dose: 100.0 mg/kg/injection, schedule: Q01DX005 (ip), vehicle: saline 100 % of control | dose: 200.0 mg/kg/injection, schedule: Q01DX005 (ip), vehicle: saline 101 % of control

CC(NC(=S)Nc1ccccc1)c1ccccc1 (centres undefined)
inactive: dose: 25.0 mg/kg/injection, schedule: Q04DX002 (ip), vehicle: Klucel (hydroxypropylcellulose) (HPC) 100 % of control | [7] 100 % of control | [1] 96 % of control

Cc1ccc(S(=O)(=O)N/N=C/c2ccc(Cl)cc2O)cc1
inactive: dose: 12.5 mg/kg/injection, schedule: Q01DX005 (ip), vehicle: distilled water + Tween-80 102 % of control | dose: 25.0 mg/kg/injection, schedule: Q01DX005 (ip), vehicle: distilled water + Tween-80 99 % of control | dose: 50.0 mg/kg/injection, schedule: Q01DX005 (ip), vehicle: distilled water + Tween-80 100 % of control | dose: 100.0 mg/kg/injection, schedule: Q01DX005 (ip), vehicle: distilled water + Tween-80 100 % of control | dose: 200.0 mg/kg/injection, schedule: Q01DX005 (ip), vehicle: distilled water + Tween-80 100 % of control

CCOC(=O)c1cnn(-c2ccccc2)c1N
inactive: dose: 12.5 mg/kg/injection, schedule: Q01DX009 (ip), vehicle: saline with Tween-80 99 % of control | [8] 99 % of control | dose: 25.0 mg/kg/injection, schedule: Q01DX009 (ip), vehicle: saline with Tween-80 109 % of control | [9] 102 % of control | [10] 101 % of control | [11] 99 % of control | [12] 96 % of control | [13] 103 % of control | [14] 96 % of control | dose: 200.0 mg/kg/injection, schedule: Q01DX009 (ip), vehicle: saline 94 % of control | dose: 400.0 mg/kg/injection, schedule: Q01DX009 (ip), vehicle: saline with Tween-80 99 % of control | dose: 400.0 mg/kg/injection, schedule: Q01DX009 (ip), vehicle: saline 105 % of control

CN(C)C(=O)NC1(N(C)C)CC1
inactive: [9] 104 % of control | [11] 100 % of control | [13] 97 % of control

O=C1Cc2nc3ccccc3nc2CC(=O)c2ccccc21
inactive: dose: 50.0 mg/kg/injection, schedule: Q04DX002 (ip), vehicle: saline with Tween-80 90 % of control | dose: 100.0 mg/kg/injection, schedule: Q04DX002 (ip), vehicle: saline with Tween-80 87 % of control | dose: 200.0 mg/kg/injection, schedule: Q04DX002 (ip), vehicle: saline with Tween-80 90 % of control

COC(=O)c1[nH]c(=O)c(C#N)c(C(=O)OC)c1C(=O)c1ccc(Cl)c(Cl)c1
inactive: [3] 100 % of control | [4] 107 % of control | dose: 240.0 mg/kg/injection, schedule: Q01DX005 (ip), vehicle: Klucel (hydroxypropylcellulose) (HPC) 100 % of control

O=c1[nH]cnc2nc(N3CCOCC3)sc12
inactive: dose: 50.0 mg/kg/injection, schedule: Q01DX005 (ip), vehicle: saline with Tween-80 93 % of control | [15] 96 % of control | dose: 200.0 mg/kg/injection, schedule: Q01DX005 (ip), vehicle: saline with Tween-80 95 % of control

NCCSc1cc(O)c2c(c1N)C(=O)c1ccccc1C2=O
inactive: [16] 106 % of control | [17] 104 % of control | [18] 106 % of control | [19] 105 % of control

CCN(CC)C(=O)S(=O)(=O)c1ccccc1
inactive: [16] 106 % of control | [17] 101 % of control and 98 % of control | [18] 120 % of control | [19] 111 % of control | [20] 110 % of control

CCOc1cc2c(=O)[nH]cnc2c(OCC)c1OCC
inactive: [10] 106 % of control | [12] 100 % of control | [14] 98 % of control

COC(=O)/C(C#N)=C/N(C)c1ccc([N+](=O)[O-])cc1
inactive: [10] 100 % of control | [12] 104 % of control | [14] 92 % of control

O=C(c1ccccc1Cl)n1c(=O)oc2ccccc21
inactive: [7] 99 % of control | [1] 90 % of control | [2] 90 % of control

O=C(O)c1ccccc1NC(=S)Nc1ccccc1C(F)(F)F
inactive: [18] 100 % of control | [19] 96 % of control | [20] 105 % of control

CCOC1OCCCC1(C)C (centres undefined)
inactive: dose: 60.0 mg/kg/injection, schedule: Q01DX005 (ip), vehicle: saline with Tween-80 100 % of control | [15] 105 % of control | dose: 240.0 mg/kg/injection, schedule: Q01DX005 (ip), vehicle: saline with Tween-80 112 % of control

C[As+](C)(C)SCCO
inactive: dose: 100.0 mg/kg/injection, schedule: Q04DX002 (ip), vehicle: saline 98 % of control | dose: 200.0 mg/kg/injection, schedule: Q04DX002 (ip), vehicle: saline 95 % of control | dose: 400.0 mg/kg/injection, schedule: Q04DX002 (ip), vehicle: saline 95 % of control

Nc1ccncc1N
inactive: dose: 2.5 mg/kg/injection, schedule: Q01DX009 (ip), vehicle: saline 94 % of control | dose: 3.12 mg/kg/injection, schedule: Q01DX009 (ip), vehicle: saline 101 % of control | dose: 5.0 mg/kg/injection, schedule: Q01DX009 (ip), vehicle: saline 106 % of control | dose: 6.25 mg/kg/injection, schedule: Q01DX009 (ip), vehicle: saline 97 % of control | dose: 10.0 mg/kg/injection, schedule: Q01DX009 (ip), vehicle: saline 100 % of control | [8] 103 % of control | dose: 20.0 mg/kg/injection, schedule: Q01DX009 (ip), vehicle: saline 93 % of control

NC1C(=O)NC(=O)NC1=O
inactive: dose: 25.0 mg/kg/injection, schedule: Q01DX005 (ip), vehicle: Klucel (hydroxypropylcellulose) (HPC) 96 % of control | [5] 96 % of control | [6] 98 % of control | dose: 200.0 mg/kg/injection, schedule: Q01DX005 (ip), vehicle: Klucel (hydroxypropylcellulose) (HPC) 100 % of control | dose: 400.0 mg/kg/injection, schedule: Q01DX005 (ip), vehicle: Klucel (hydroxypropylcellulose) (HPC) 105 % of control

O=C(NNC(O)C(F)(F)F)c1ccccc1F (centres undefined)
inactive: [1] 99 % of control
